Data set [1] relates to sandwich-cultured human hepatocytes. Kind of data set: Drug-induced cholestasis (DIC) assay: urea formation in sandwich-cultured human hepatocytes with and without the bile salt mixture. The settings on record: lowest in vitro concentration with DICI < 0.78 / Cmax,total; for DICI-based SM obtained with the ‘original’ LOAEL method 24 h: 24 h incubation; for DICI-based SM obtained with the ‘original’ LOAEL method 48 h: 48 h incubation. The source says:
Drug-induced cholestasis (DIC) is a major cause of attrition during drug development and post-marketing withdrawal. Early detection of DIC is crucial for avoiding financial losses and improving drug safety. Preclinical assays for DIC detection often rely on evaluation of the test compound towards individual cellular targets such as their inhibitory potential towards the bile salt export pump (BSEP) by using BSEP membrane vesicles. However, the underlying mechanisms of DIC development are more complex involving multiple other transporters and nuclear receptors. A more comprehensive in vitro model such as sandwich-cultured human hepatocytes (SCHH) are more suited due to the presence of metabolizing enzymes and transporters relevant to bile salt disposition. The assay described here relies on changes in the ability of SCHH to produce urea from ammonia in the absence and presence of a (patho-)physiologically relevant bile salt mixture. Ammonia is detoxified in the hepatocyte by the urea cycle to form non-toxic urea. Measuring changes in urea production allows for the quantitative evaluation of the hepatocyte's biochemical and functional integrity. The colorimetric quantitation of urea formation is based on the reaction between urea and diacetylmonoxime.
By determining the ratio of urea formation after incubation with test compound in absence and in presence of the bile salt mixture, the DIC index (DICI) value can be calculated. […] It was previously established that a compound with a SM below 30 can be considered to display increased risk for causing cholestasis in the clinic.
If longer incubations are required (e.g. 48 h), the medium is changed again after 24 h (day 6) with fresh medium containing the same initial concentrations of test compound and bile salts as 24 h before.
• Solution 1: culture medium with no compound and 0.2% DMSO. […] This solution should be filtered through a 0.2 µm filter and prewarmed for 30 min at 37°C. • Solution 4: culture medium with double concentrated test compound. […] This solution should be filtered through a 0.2 µm filter and prewarmed for 30 min at 37°C. • Solution 5: control medium with bile salts, prepared by mixing solution 1 and solution 2 in a 1:1 ratio. • Solution 6: culture medium with positive control without bile salts, prepared by mixing solution 1 and solution 3 in a 1:1 ratio. • Solution 7: culture medium with positive control with bile salts, prepared by mixing solution 2 and solution 3 in a 1:1 ratio. • Solution 8: culture medium with test compound without bile salts, prepared by mixing solution 1 and solution 4 in a 1:1 ratio. • Solution 9: culture medium with test compound with bile salts, prepared by mixing solution 2 and solution 4 in a 1:1 ratio.
• 1. On day 5, aspirate the medium and preincubate the cells with solution 1, solution 6 or solution 8 for 2 h. Note: this preincubation step is performed to enable the compounds to interact with the cellular machinery. • 2. After 2 h, aspirate the medium and immediately incubate the cells with solution 1, solution 5, solution 6, solution 7, solution 8 or solution 9 for 22 h.
The urea assay is performed on day 6 or day 7 for 24 h and 48 h incubations, respectively.
• Solutions for the color reagent. […] Note: perform this procedure on ice as this is an exothermic reaction. Wear appropriate protective gear. • ○ Solution B prepared by mixing the thiosemicarbazide solution and the diacetyl monoxime in a 1:1 ratio. • Incubation buffer: HBSS containing 10 mM HEPES, 2 mM glutamine, 10 mM ammonium chloride and 3 mM ornithine, filtered through a 0.2 µm filter and prewarmed at 37°C. • 96-well thermostable plate with aluminum cover slip.
• 1. Aspirate the culture medium. • 2. Wash the wells twice with 250 µL prewarmed incubation buffer. Aspirate the remaining buffer. • 3. Add 125 µL prewarmed incubation buffer to each well and keep the plate at 37°C for 1 h. • 4.

Data set [2] has the same test system. The conditions noted are these: SCHH, ref [6],[7], cited from earlier work; for DICI 24 h Mean: 24 h exposure; for DICI 48 h Mean: 48 h exposure.
On the set-up of data set [3]: method as in per compound in column References of Table 3 ([3], [24]-[44]). The settings on record: mean total peak plasma concentration in humans; ref per compound in Table 3 ([3], [24]-[44]); cited from earlier work.

Where two headings read alike, the source gives them in different places.

In the case of `CC[C@H]1OC(=O)[C@H](C)[C@@H](O[C@H]2C[C@@](C)(OC)[C@@H](O)[C@H](C)O2)[C@H](C)[C@@H](O[C@@H]2O[C@H](C)C[C@H](N(C)C)[C@H]2O)[C@](C)(O)C[C@@H](C)C(=O)[C@H](C)[C@@H](O)[C@]1(C)O` [Erythromycin, erythromycin], the “DICI-based SM obtained with the ‘original’ LOAEL method 24 h” value in data set [1] came out at 50.38. Also, the figures for the “DICI 24 h Mean” value in data set [2] (50 µM test compound), in data set [2] (100 µM test compound) and in data set [2] (200 µM test compound) were 0.94, 1.29 and 1.42, respectively. Besides, the “Cmax,total” value in data set [3] is 3.97 µM.
Consider `O=c1[nH]c(=O)n([C@@H]2O[C@H](CO)[C@@H](O)[C@@H]2F)cc1I` [Fialuridine, fialuridine], for which the “DICI-based SM obtained with the ‘original’ LOAEL method 24 h” value in data set [1] was 468.75. Besides, the “DICI 24 h Mean” value is reported as 0.88 in data set [2] (10 µM test compound); 0.94 in data set [2] (20 µM test compound); 0.95 in data set [2] (30 µM test compound); 0.79 in data set [2] (50 µM test compound); 1.12 in data set [2] (100 µM test compound); 0.82 in data set [2] (300 µM test compound). Also, the “DICI 48 h Mean” value was 0.92 in data set [2] (10 µM test compound); 0.79 in data set [2] (20 µM test compound); 1.26 in data set [2] (30 µM test compound); 1.19 in data set [2] (50 µM test compound); 0.89 in data set [2] (100 µM test compound); 0.96 in data set [2] (300 µM test compound). The “Cmax,total” value in data set [3] was 0.64 µM.
On to `CCC(=O)O[C@@H]1CC(=O)O[C@H](C)C/C=C/C=C/[C@H](O)[C@H](C)C[C@H](CC=O)[C@H](O[C@@H]2O[C@H](C)[C@@H](O[C@H]3C[C@@](C)(O)[C@@H](OC(=O)CC)[C@H](C)O3)[C@H](N(C)C)[C@H]2O)[C@H]1OC` [Midecamycin, midecamycin], for which, in data set [1], the “DICI-based SM obtained with the ‘original’ LOAEL method 24 h” value worked out at 50 and the “DICI-based SM obtained with the ‘original’ LOAEL method 48 h” value is on record as 50. Also, in data set [2] (100 µM test compound), the “DICI 24 h Mean” value is reported as 0.71 and the “DICI 48 h Mean” value is recorded as 1.07. The “Cmax,total” value in data set [3] is 2 µM.
In the case of `CCc1nn(CCCN2CCN(c3cccc(Cl)c3)CC2)c(=O)n1CCOc1ccccc1` [Nefazodone, nefazodone], the “DICI-based SM obtained with the ‘original’ LOAEL method 48 h” value in data set [1] is reported as 7.04. Moreover, the “DICI 24 h Mean” value in data set [2] (10 µM test compound) is reported as 0.69; in data set [2] (30 µM test compound), 0.77; in data set [2] (130 µM test compound), 1.09. Moreover, the “DICI 48 h Mean” value is listed as 1.18 in data set [2] (10 µM test compound) and 0.37 in data set [2] (30 µM test compound). In data set [3], the “Cmax,total” value is 4.26 µM.
As to `CCc1ccc(CCOc2ccc(CC3SC(=O)NC3=O)cc2)nc1` (stereo not drawn) [Pioglitazone, pioglitazone], in data set [1], the “DICI-based SM obtained with the ‘original’ LOAEL method 24 h” value was found to be 101.69. Moreover, the “DICI-based SM obtained with the ‘original’ LOAEL method 48 h” value in data set [1] amounted to 101.69. The “DICI 24 h Mean” value in data set [2] (50 µM test compound) is 1.15; in data set [2] (100 µM test compound), 1.00; in data set [2] (300 µM test compound) it was 0.94. Besides, in data set [3], the “Cmax,total” value is 2.95 µM.
For the compound `Cc1ccc(C(=O)c2cc(O)c(O)c([N+](=O)[O-])c2)cc1` [Tolcapone, tolcapone], in data set [1], the “DICI-based SM obtained with the ‘original’ LOAEL method 24 h” value came out at 1.05 and the “DICI-based SM obtained with the ‘original’ LOAEL method 48 h” value amounted to 1.05. In data set [2] (5 µM test compound), the “DICI 24 h Mean” value was 0.98 and the “DICI 48 h Mean” value is on record as 1.01. Also, in data set [2] (10 µM test compound), the “DICI 24 h Mean” value is 1.05 and the “DICI 48 h Mean” value was 0.89. Further, in data set [2] (50 µM test compound), the “DICI 24 h Mean” value is 0.91 and the “DICI 48 h Mean” value is 0.79. The “Cmax,total” value in data set [3] is 47.6 µM.
Regarding `Cc1c(C)c2c(c(C)c1O)CCC(C)(COc1ccc(CC3SC(=O)NC3=O)cc1)O2` (stereo not drawn) [Troglitazone, troglitazone], the “DICI-based SM obtained with the ‘original’ LOAEL method 24 h” value in data set [1] is 15.65. In addition, in data set [1], the “DICI-based SM obtained with the ‘original’ LOAEL method 48 h” value was 15.65. Besides, the “DICI 24 h Mean” value is reported as 0.98 in data set [2] (20 µM test compound), 1.02 in data set [2] (50 µM test compound), 0.78 in data set [2] (75 µM test compound) and 0.74 in data set [2] (100 µM test compound). The “DICI 48 h Mean” value is on record as 1.09 in data set [2] (20 µM test compound), 1.00 in data set [2] (50 µM test compound), 0.79 in data set [2] (75 µM test compound) and 0.24 in data set [2] (100 µM test compound). Besides, the “Cmax,total” value in data set [3] is 6.39 µM.
Take `CCOC(=O)CN[C@@H](C(=O)N1CC[C@H]1C(=O)NCc1ccc(/C(N)=N\O)cc1)C1CCCCC1` [Ximelagatran, ximelagatran]: in data set [1], the “DICI-based SM obtained with the ‘original’ LOAEL method 24 h” value amounted to 500 and the “DICI-based SM obtained with the ‘original’ LOAEL method 48 h” value was 500. In data set [2] (25 µM test compound), the “DICI 24 h Mean” value is 0.85 and the “DICI 48 h Mean” value is recorded as 0.95. Besides, in data set [2] (50 µM test compound), the “DICI 24 h Mean” value was 0.95 and the “DICI 48 h Mean” value is 0.93. In data set [2] (150 µM test compound), the “DICI 24 h Mean” value was 1.02 and the “DICI 48 h Mean” value is recorded as 1.05. The “Cmax,total” value in data set [3] is 0.3 µM.

Values taken from article PMC7559231, “Drug-induced cholestasis assay in primary hepatocytes” (MethodsX, 2020).
